Measurements from patent publication US5583104A, “Treatment of proliferation of bile duct epithelium” (Mayo Foundation for Medical Research and Education, priority 1993, dated 1996).

System: human cholangiocarcinoma cell line SK-ChA-1
Experiment: Anti-proliferative MTT assay on human cholangiocarcinoma cell line SK-ChA-1
Assay type: cell-based
Settings: for inhibiting the growth of the human cholangiocarcinoma cell line: FIGS. 1 and 2, both experiments, non-dose dependent; for Percent Protection, Day 8: first experiment (Table I); for Percent Protection Day 4: second experiment (Table II)
Procedure: The human cholangiocarcinoma cell line SK-ChA-1 was grown from malignant ascites of a patient with primary adenocarcinoma of the extrahepatic biliary tree. See Knuth, et al. J. of Hepatology 1:579 (1985), hereby incorporated by reference.
SK-ChA-1 cells were plated (100 μl) into 96-well culture plates (Falcon) at a density of 50,000 cells/ml in Dulbecco's modified Eagle's medium (DMEM/HAMSF12 (50:50)) with 2% fetal calf serum (FCS, Hyclone) and antibiotics (penicillin 100 IU/ml, streptomycin 100 μg/ml and amphotericin B 2.5 μg/ml). After 18 hours, the medium was replaced with fresh medium with or without the two test drugs, natural somatostatin-14 and the somatostatin agonist octreotide. The experiments were performed in triplicate. Wells without the addition of any test drug served as normal controls. All media, with the appropriate concentration of test drug, were changed every two days.
The amount of viable cells were assayed every two days using 3-(4,5-[…])-2,5-diphenyl tetrazolium (MTT) according to method published by Tada, J. Immunol. Meth. 93:157 (1986), hereby incorporated by reference. Optical density was read by a 96-well automatic microplate reader (molecular Devices) at a test wavelength of 570 nm and a reference wavelength of 630 nm. An experiment had validated the correlation of the MTT assay (r=0.975, p=0.004) with a wide range of cell concentrations (3,000 to 330,000 cells/ml) counted with the hemocytometer. Cell proliferation curves with respect to time and test drug concentration were plotted with control wells as the baseline for comparison.
Two experiments were performed using this assay. […] The second experiment was performed at concentrations of 10^-5 M to 10^-10 M (in one log increments) and assayed every two days until day 8.

[1] = drug concentration 1 × 10^-5 M, MTT viable cells vs control wells
[2] = drug concentration 1 × 10^-10 M

SMILES | inhibiting the growth of the human cholangiocarcinoma cell line | Percent Protection, Day 8 [1] [%] | Percent Protection, Day 8 (drug concentration 1 × 10^-6 M) [%] | Percent Protection, Day 8 (drug concentration 1 × 10^-7 M) [%] | Percent Protection, Day 8 (drug concentration 1 × 10^-8 M) [%] | Percent Protection Day 4 (drug concentration 1 × 10^-5 M) [%] | Percent Protection Day 4 (drug concentration 1 × 10^-6 M) [%] | Percent Protection Day 4 (drug concentration 1 × 10^-7 M) [%] | Percent Protection Day 4 (drug concentration 1 × 10^-8 M) [%] | Percent Protection Day 4 (drug concentration 1 × 10^-9 M) [%] | Percent Protection Day 4 [2] [%]
C[C@@H](O)[C@@H]1NC(=O)[C@H](CCCCN)NC(=O)[C@@H](Cc2c[nH]c3ccccc23)NC(=O)[C@H](Cc2ccccc2)NC(=O)[C@@H](NC(=O)[C@H](N)Cc2ccccc2)CSSC[C@@H](C(=O)N[C@H](CO)[C@@H](C)O)NC1=O [Octreotide, H-D-Phe-Cys-Phe-D-Trp-Lys-Thr-Cys-threoninol] | effective in inhibiting the growth | 79.1 | 92.2 | 78.4 | 61.0 | 62.6 | 52.9 | 44.4 | 46.8 | 61.7 | 50.4
C[C@H](N)C(=O)NCC(=O)N[C@H]1CSSC[C@@H](C(=O)O)NC(=O)[C@H](CO)NC(=O)[C@H]([C@@H](C)O)NC(=O)[C@H](Cc2ccccc2)NC(=O)[C@H]([C@@H](C)O)NC(=O)[C@H](CCCCN)NC(=O)[C@H](Cc2c[nH]c3ccccc23)NC(=O)[C@H](Cc2ccccc2)NC(=O)[C@H](Cc2ccccc2)NC(=O)[C@H](CC(N)=O)NC(=O)[C@H](CCCCN)NC1=O [Somatostatin] | effective in inhibiting the growth | 94.9 | 66.8 | 89.9 | – | 54.3 | 47.5 | 42.6 | 50.2 | 50.4 | 62.3
